pEC50, pIC50: −log10 of the molar value. Where “and” joins values, the source holds several entries; their conditions need not be identical. Equal entries are not always repeated. Where two headings read alike, the source gives them in different places.
Columns and labels:
[1] = target: human recombinant GCL (Homo sapiens (Human), UniProt P48506); assay: GCL enzyme profiling assay (ADP-Glo luminescence); type: biochemical; settings: for pIC50: read-out: GCL IC50
Summary of the method: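 ADP-Glo luminescence readout; 5 nM enzyme preincubated 1 h at 22 °C with 0.6 mM ATP, then started with 1 mM glutamate and 1.2 mM α-aminobutyrate, stopped after 2 h. Buffer: HEPES pH 7.5, MgCl2, DTT, BSA, 0.2% F-127, 1% DMSO. IC50 from four-parameter logistic fit.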

[2] = test system: RKN cells; assay: RKN cell profiling assay (cell viability, CellTiter-Glo); type: cell-based; settings: for pEC50: read-out: Cell Killing EC50; for EC50: read-out: Cell Killing EC50 (mM), individual values in parentheses
Summary of the method: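 Cells seeded at 1,000/well in F-12 with 10% FBS, left to adhere 24 h, then compound-treated for 96 h at 0.5% final DMSO. Viability by CellTiter-Glo luminescence; EC50 from four-parameter logistic fit. Ferroptosis rescue runs included 1.5 μM ferrostatin-1 added at seeding.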

[3] = human recombinant GCL 5 nM, 1 h preincubation with ATP

human recombinant GCL, sequence (P48506 whole entry): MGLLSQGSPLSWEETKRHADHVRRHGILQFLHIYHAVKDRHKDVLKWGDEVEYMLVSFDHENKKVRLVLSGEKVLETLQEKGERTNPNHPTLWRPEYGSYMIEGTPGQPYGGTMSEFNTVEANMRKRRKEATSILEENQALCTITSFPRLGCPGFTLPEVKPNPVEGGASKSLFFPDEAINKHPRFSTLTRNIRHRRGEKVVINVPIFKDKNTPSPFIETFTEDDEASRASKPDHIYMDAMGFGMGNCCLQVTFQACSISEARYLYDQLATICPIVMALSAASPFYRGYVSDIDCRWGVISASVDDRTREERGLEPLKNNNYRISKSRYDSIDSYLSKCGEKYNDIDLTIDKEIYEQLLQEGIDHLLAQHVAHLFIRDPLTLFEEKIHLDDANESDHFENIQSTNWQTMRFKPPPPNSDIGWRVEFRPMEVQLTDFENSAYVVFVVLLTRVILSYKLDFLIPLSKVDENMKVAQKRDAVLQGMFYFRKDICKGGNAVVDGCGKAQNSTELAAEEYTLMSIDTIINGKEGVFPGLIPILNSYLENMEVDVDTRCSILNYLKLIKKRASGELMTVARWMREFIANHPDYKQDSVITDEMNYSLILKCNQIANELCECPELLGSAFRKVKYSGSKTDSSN

Compound | pIC50 ([1]; human recombinant GCL, ADP-Glo) | pEC50 ([2]; cell viability) | pIC50 [1, 3] | pEC50 ([2]; 96 h, 96 h exposure) | also measured
N=S(=O)(CCC(c1ccc(-c2cncc(C(F)(F)F)c2)cc1)C(F)(F)F)CC[C@H](N)C(=O)O (some centres unmarked) [Compound 250] | ≥ 4.70 | ≤ 3.00 |  |  | 
N=S(=O)(CC[C@H](N)C(=O)O)C[C@H](O)c1ccccc1 (some centres unmarked) [Compound 46] |  |  | 2.70 to 4.70 | ≤ 3.00 | 
N=S(=O)(CCC(n1ncc(-c2ccccn2)n1)C(F)(F)F)CC[C@H](N)C(=O)O (some centres unmarked) [Compound 407] | ≥ 4.70 | ≤ 3.00 |  |  | 
CCCCS(=N)(=O)CC[C@H](N)C(=O)NS(C)(=O)=O (stereo partly drawn) [Compound 104, (2S)-2-amino-4-(butylsulfonimidoyl)-N-(methylsulfonyl)butanamide] |  |  | 2.70 to 4.70 | ≤ 3.00 | 
CCC(CS(=N)(=O)CC[C@H](N)C(=O)O)c1ccccc1C(F)(F)F (some centres unmarked) [Compound 47] |  |  | < 2.70 | ≤ 3.00 | 
COC(=O)[C@@H](N)CCS(=N)(=O)CCc1nnn[nH]1 (stereo partly drawn) [Compound 69, (2S)-methyl 4-(2-(1H-tetrazol-5-yl)ethylsulfonimidoyl)-2-aminobutanoate] |  |  | < 2.70 | ≤ 3.00 | 
Cc1ccc(CCS(=N)(=O)CC[C@H](N)C(=O)O)c(F)c1 (some centres unmarked) [Compound 37] |  |  | ≥ 4.70 | ≤ 3.00 | 
N=S(=O)(CC[C@H](N)C(=O)O)CCC(O)(c1ncc(-c2ccccc2)[nH]1)C(F)(F)F (some centres unmarked) [Compound 358] | ≥ 4.70 | > 3.00 |  |  | 
CC(C)(CCS(=N)(=O)CC[C@H](N)C(=O)O)c1cnoc1 (some centres unmarked) [Compound 63] |  |  | 2.70 to 4.70 | ≤ 3.00 | 
CCCCS(=N)(=O)CC[C@H](N)C(=O)NS(=O)(=O)C1CC1 (some centres unmarked) [Compound 109] |  |  | 2.70 to 4.70 | ≤ 3.00 | 
N=S(=O)(CCCC(F)(F)F)CC[C@H](N)c1ncn[nH]1 (stereo partly drawn) [Compound 205, (1S)-1-(1H-1,2,4-triazol-5-yl)-3-(4,4,4-trifluorobutylsulfonimidoyl)propan-1-amine] |  |  | ≥ 4.70 and 2.70 to 4.70 | ≤ 3.00 | 
N=[S@](=O)(CCCC(F)(F)F)CC[C@H](N)C(=O)O [Compound 139, (S)-2-amino-4-((S)-4,4,4-trifluorobutylsulfonimidoyl)butanoic acid] |  |  | ≥ 4.70 | > 3.00 | 
N=S(=O)(CCc1cccs1)CC[C@H](N)C(=O)O (some centres unmarked) [Compound 48] |  |  | ≥ 4.70 | ≤ 3.00 | 
N=S(=O)(CCC(c1ccccc1)C(F)(F)F)CC[C@H](N)C(=O)O (some centres unmarked) [Compound 53] |  |  | 2.70 to 4.70 | > 3.00 | 
N=S(=O)(CC[C@H](N)C(=O)O)CCC(O)(c1ccc(-c2ccc(Cl)cc2Cl)cn1)C(F)(F)F (some centres unmarked) [Compound 463] | ≥ 4.70 | > 3.00 |  |  | 
N=S(=O)(CC[C@H](N)C(=O)O)CCC1(n2ncc(-c3cccnc3)n2)CCC1 (some centres unmarked) [Compound 419] | 2.70 to 4.70 | ≤ 3.00 |  |  | 
N=S(=O)(CCCC(F)(F)F)CC[C@H](N)C(=O)NC1CC1 (some centres unmarked) [Compound 130] |  |  | < 2.70 and 2.70 to 4.70 | > 3.00 | IC50 ([1]; human recombinant GCL 5 nM, 1 h preincubation with ATP, read-out: GCL IC50 (mM), individual values in parentheses): > 10 mM and 1.73 mM
CC(C)(C)CCS(=N)(=O)CC[C@H](N)C(=O)NC(CO)CO (some centres unmarked) [Compound 126] |  |  | < 2.70 | ≤ 3.00 | 
N=S(=O)(CC[C@H](N)C(=O)O)CCC(O)(c1ccc(Oc2ccc3ccc(=O)oc3c2)cc1)C(F)(F)F (some centres unmarked) [compound 501] | ≥ 4.70 | ≤ 3.00 |  |  | 
COc1cncc(-c2ccc(C(CCS(=N)(=O)CC[C@H](N)C(=O)O)C(F)(F)F)cc2)c1 (some centres unmarked) [Compound 242] | ≥ 4.70 | ≤ 3.00 |  |  | 
N=S(=O)(CCC(c1ccc(-c2cc(F)ccc2O)cc1)C(F)(F)F)CC[C@H](N)C(=O)O (some centres unmarked) [Compound 232] | ≥ 4.70 | > 3.00 |  |  | 
Cc1ccc(CCS(=N)(=O)CC[C@H](N)C(=O)O)cc1 (some centres unmarked) [Compound 11] |  |  | ≥ 4.70 | ≤ 3.00 | 
Cc1cccc(C)c1CCS(=N)(=O)CC[C@H](N)C(=O)O (some centres unmarked) [Compound 32] |  |  | 2.70 to 4.70 | ≤ 3.00 | 
N=S(=O)(CCc1ccccc1C1CC1)CC[C@H](N)C(=O)O (some centres unmarked) [Compound 34] |  |  | 2.70 to 4.70 | ≤ 3.00 | 
N=[S@SP2](=O)(CCC(N)C(=O)O)CCC(O)(c1ccc(Nc2nccs2)cc1)C(F)(F)F (centres unmarked) [compound 505] | ≥ 4.70 | ≤ 3.00 |  |  | 
COCCS(=N)(=O)CC[C@H](N)C(=O)O (some centres unmarked) [Compound 164] |  |  | 2.70 to 4.70 | ≤ 3.00 | 
N=S(=O)(CC[C@H](N)C(=O)O)CC(O)C1CCCC1 (some centres unmarked) [Compound 137] |  |  | 2.70 to 4.70 | > 3.00 | EC50 ([2]; 96 h, 96 h exposure): 1.47 mM; EC50 ([2]; 96 h exposure): 0.92 mM
N=S(=O)(CCC(c1ccc2[nH]ncc2c1)C(F)(F)F)CC[C@H](N)C(=O)O (stereo partly drawn) [Compound 386, (2S)-2-amino-4-(4,4,4-trifluoro-3-(1H-indazol-5-yl)butylsulfonimidoyl)butanoic acid] | ≥ 4.70 | > 3.00 |  |  | 

From patent US20260034094A1, “COMPOSITIONS AND METHODS FOR INDUCING FERROPTOSIS” (Kojin Therapeutics, Inc., priority 2022, published 2026)
